This note sets out measurements from ChEMBL document CHEMBL1135268, “Design, synthesis and in vitro evaluation of potent, novel, small molecule inhibitors of plasminogen activator inhibitor-1” (Bioorg Med Chem Lett, 2002).

Structures are written as SMILES. A value given as a limit tells only on which side of the number the result lay.

What is called IC50 is the concentration at which inhibition is half-maximal. Low values mean greater potency in that assay, high ones weaker potency in that assay.

The target of the first assay is T1, Plasminogen activator inhibitor 1 (Homo sapiens, UniProt P05121). Briefly: Inhibitory activity against human plasminogen activator inhibitor-1 (PAI-1) evaluated by chromogenic assay.
T1 sequence (P05121 whole entry): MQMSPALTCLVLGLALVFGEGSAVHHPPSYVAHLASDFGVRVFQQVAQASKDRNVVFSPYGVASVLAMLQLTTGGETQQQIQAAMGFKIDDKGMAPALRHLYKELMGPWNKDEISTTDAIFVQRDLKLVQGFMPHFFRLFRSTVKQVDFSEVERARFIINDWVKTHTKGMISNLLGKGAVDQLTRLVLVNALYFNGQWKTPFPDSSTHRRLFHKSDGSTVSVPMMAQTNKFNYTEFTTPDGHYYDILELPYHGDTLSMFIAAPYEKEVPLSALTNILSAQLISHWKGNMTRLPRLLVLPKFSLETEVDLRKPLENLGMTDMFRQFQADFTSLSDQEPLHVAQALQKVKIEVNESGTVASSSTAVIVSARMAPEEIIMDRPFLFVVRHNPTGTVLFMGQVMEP
In turn, `O=C(Nc1ccc(OCCCCCCCn2cnnn2)cc1)c1c(O)c2cc(-c3cc4ccccc4s3)ccc2[nH]c1=O` showed a half-maximal inhibitory concentration (IC50) of 1010 nM.

For `O=C(O)CCCCCCCOc1ccc(NC(=O)c2c(O)c3cc(-c4cc5ccccc5s4)ccc3[nH]c2=O)cc1`, the concentration for half-maximal inhibition (IC50) was found to be 500 nM.

For the compound `O=C(O)CCCCCCCOc1ccc(/C=c2/[nH]c(=O)/c(=C/c3ccc(NC(=O)c4cccs4)cc3)[nH]c2=O)cc1`, it took 200 nM to reach half-maximal inhibition (IC50). This IC50 lies about 2.5-fold lower than the previous one.

Consider `O=C(O)CCCCCCCOc1ccc(NC(=O)c2c(O)c3cccc(-c4cccc5ccccc45)c3[nH]c2=O)cc1`, for which the IC50 is > 50000 nM.

Consider `O=C(O)CCCCCCCOc1ccc(NC(=O)C2=C(O)CN(Cc3ccccc3)C2=O)cc1`, for which the IC50 is > 50000 nM.

As to `O=C(O)CCCCCCCOc1ccc(NC(=O)C2=C(O)C(c3ccccc3)NC2=O)cc1` (stereo not drawn), the concentration for half-maximal inhibition (IC50) came to 49000 nM. This counts as double-digit micromolar.

As to `O=C(O)CCCCCCCOc1ccc(NC(=O)C2=C(O)C(Cc3ccc(O)cc3)NC2=O)cc1` (stereo not drawn), the half-inhibitory concentration (IC50) was > 50000 nM.

`COc1ccc(-c2cccc3c(O)c(C(=O)Nc4ccc(OCCCCCCCC(=O)O)cc4)c(=O)[nH]c23)cc1`: the IC50 worked out at 30000 nM.

Consider `Nc1ccc2nc(O)c(C(=O)Nc3ccc(OCCCCCCCC(=O)O)cc3)c(O)c2c1`, for which the 50% inhibitory concentration (IC50) is > 20000 nM.

As to `O=C(O)CCCCCCCOc1ccc(NC(=O)c2c(O)nc3ccc(I)cc3c2O)cc1`, the IC50 turned out to be 2200 nM.

The compound `Cc1ccc(N2CC(O)=C(C(=O)Nc3ccc(OCCCCCCCn4cnnn4)cc3)C2=O)cc1` returned an IC50 of 890 nM.

In the case of `CC1C(O)=C(C(=O)Nc2ccc(OCCCCCCCC(=O)O)cc2)C(=O)N1c1ccccc1` (stereo not drawn), the IC50 was > 50000 nM.

`O=C(O)CCCCCCCOc1ccc(NC(=O)c2c(O)nc3ccc(Cl)cc3c2O)cc1` yielded a half-inhibitory concentration (IC50) of 1950 nM.

Regarding `COc1ccccc1N1CC(O)=C(C(=O)Nc2ccc(OCCCCCCCC(=O)O)cc2)C1=O`, the half-inhibitory concentration (IC50) was > 50000 nM.

`O=C(O)CCCCCCCOc1ccc(NC(=O)c2c(O)c3ccc(-c4cc5ccccc5s4)cc3[nH]c2=O)cc1`: the IC50 came to 300 nM.

On to `O=C(O)CCCCCCCOc1ccc(NC(=O)c2c(O)c3ccccc3[nH]c2=O)cc1`, for which the IC50 worked out at 1850 nM.

`O=C(O)CCCCCCCOc1ccc(NC(=O)C2=C(O)CN(c3ccc(Cl)cc3)C2=O)cc1` came in with a 50% inhibitory concentration (IC50) of 5000 nM.

In turn, `N#Cc1ccc2c(O)c(C(=O)Nc3ccc(OCCCCCCCC(=O)O)cc3)c(=O)[nH]c2c1` displayed an IC50 of 900 nM. Against the preceding compound, the IC50 is about 5.6-fold lower.

In the case of `O=C(O)CCCCCCCOc1ccc(NC(=O)C2=C(O)CN(c3ccc(Cl)c(Cl)c3)C2=O)cc1`, the IC50 turned out to be 13000 nM.

Compound `O=C(O)CCCCCCCOc1ccc(NC(=O)c2c(O)nc3ccc(-c4csc5ccccc45)cc3c2O)cc1` gave an IC50 of 510 nM.

Consider `O=C(O)CCCCCCCOc1ccc(NC(=O)c2c(O)c3cc(-c4ccc5ccccc5c4)ccc3[nH]c2=O)cc1`, for which it took 670 nM to reach half-maximal inhibition (IC50).

As for `COC(=O)CCCCCCCOc1ccc(NC(=O)C2=C(O)CN(c3ccc(Cl)cc3)C2=O)cc1`, the IC50 is > 50000 nM.

For the compound `COc1ccc(N2CC(O)=C(C(=O)Nc3ccc(OCCCCCCCC(=O)O)cc3)C2=O)cc1`, the IC50 was 3660 nM.

With `O=C(O)CCCCCCCOc1ccc(NC(=O)c2c(O)nc3ccc([N+](=O)[O-])cc3c2O)cc1`, the midpoint of inhibition, the IC50, lay at 3600 nM.

The compound `O=C(O)CCCCCCCOc1ccc(NC(=O)C2=C(O)CN(c3ccc4ccccc4c3)C2=O)cc1` had an IC50 of 4000 nM.

Turning to `Cc1ccc(N2CC(O)=C(C(=O)Nc3ccc(OCCCCCCCC(=O)O)cc3)C2=O)cc1`, the IC50 stood at 1950 nM.

In turn, `O=C(O)CCCCCCCOc1ccc(NC(=O)c2c(O)c3c(Cl)cccc3[nH]c2=O)cc1` had an IC50 of 3000 nM.

With `O=C(O)CCCCCCCOc1ccc(NC(=O)c2c(O)c3cc(-c4ccc(Cl)cc4)ccc3[nH]c2=O)cc1`, the IC50 was determined as 2000 nM.

`O=C(O)CCCCCCCOc1ccc(NC(=O)c2c(O)c3c(I)cccc3[nH]c2=O)cc1` yielded an IC50 of 7000 nM.

For `O=C(O)CCCCCCCOc1ccc(NC(=O)C2=C(O)CN(c3ccccc3)C2=O)cc1`, the 50% inhibitory concentration (IC50) is 21000 nM.

Turning to `Nc1ccc2c(O)c(C(=O)Nc3ccc(OCCCCCCCC(=O)O)cc3)c(O)nc2c1`, the IC50 was > 30000 nM.

In turn, `O=C(O)CCCCCCCOc1ccc(NC(=O)c2c(O)c3c([N+](=O)[O-])cccc3[nH]c2=O)cc1` yielded a concentration for half-maximal inhibition (IC50) of 7900 nM. This counts as single-digit micromolar.

In turn, `CCCCCc1ccc2[nH]c(=O)c(C(=O)Nc3ccc(OCCCCCCCC(=O)O)cc3)c(O)c2c1` yielded an IC50 of 1800 nM.

In the case of `O=C(O)CCCCCCCOc1ccc(NC(=O)c2c(O)c3ccc(C(F)(F)F)cc3[nH]c2=O)cc1`, the IC50 was determined as 1030 nM.

Consider `O=C(O)CCCCCCCOc1ccc(NC(=O)C2=C(O)CN(c3ccc(Br)cc3)C2=O)cc1`, for which the IC50 worked out at 1990 nM.

For `O=C(O)CCCCCCCOc1ccc(NC(=O)c2c(O)c3cc(F)ccc3[nH]c2=O)cc1`, half-maximal inhibition (IC50) was put at 4900 nM.

The compound `Nc1cccc2nc(O)c(C(=O)Nc3ccc(OCCCCCCCC(=O)O)cc3)c(O)c12` came in with a concentration for half-maximal inhibition (IC50) of 4250 nM.

`COc1cc2[nH]c(=O)c(C(=O)Nc3ccc(OCCCCCCCC(=O)O)cc3)c(O)c2cc1OC`: the midpoint of inhibition, the IC50, lay at 1650 nM. This IC50 is about 2.6-fold lower than that of the compound before.

Regarding `COC(=O)c1cccc(N2CC(O)=C(C(=O)Nc3ccc(OCCCCCCCC(=O)O)cc3)C2=O)c1`, the midpoint of inhibition, the IC50, lay at 17900 nM.

In turn, `O=C(Nc1ccc(OCCCCCCCn2cnnn2)cc1)C1=C(O)CN(c2ccc(Cl)cc2)C1=O` yielded a concentration for half-maximal inhibition (IC50) of 690 nM.

Take `O=C(O)CCCCCCCOc1ccc(NC(=O)C2=C(O)CN(c3ccccc3Cl)C2=O)cc1`: the 50% inhibitory concentration (IC50) was > 50000 nM.

On to `CC(=O)Nc1ccc(N2CC(O)=C(C(=O)Nc3ccc(OCCCCCCCC(=O)O)cc3)C2=O)cc1`, for which the 50% inhibitory concentration (IC50) was > 50000 nM.

`CC(C)c1ccc(N2CC(O)=C(C(=O)Nc3ccc(OCCCCCCCC(=O)O)cc3)C2=O)cc1` had a half-maximal inhibitory concentration (IC50) of 2350 nM.

Take `O=C(O)CCCCCCCOc1ccc(NC(=O)C2=C(O)CN(c3cccc4ccccc34)C2=O)cc1`: the IC50 was > 50000 nM.

The compound `O=C(O)CCCCCCCOc1ccc(NC(=O)c2c(O)c3ccc(-c4ccc5ccccc5c4)cc3[nH]c2=O)cc1` had an IC50 of 600 nM.

With `O=C(O)CCCCCCCOc1ccc(NC(=O)C2=C(O)CN(c3ccc(N4CCOCC4)cc3)C2=O)cc1`, the half-inhibitory concentration (IC50) was > 50000 nM.

`O=C(O)CCCCCCCOc1ccc(NC(=O)C2=C(O)CN(c3ccc([N+](=O)[O-])cc3)C2=O)cc1` gave an IC50 of 4250 nM.

On to `O=C(O)CCCCCCCOc1ccc(NC(=O)c2c(O)nc3cc(F)c(F)cc3c2O)cc1`, for which 2350 nM corresponded to half-maximal inhibition (IC50).

A further assay has as its target T1, Plasminogen activator inhibitor 1. Briefly: Inhibitory activity against human plasminogen activator inhibitor-1 (PAI-1) evaluated by complex assay.
In turn, `O=C(Nc1ccc(OCCCCCCCn2cnnn2)cc1)c1c(O)c2cc(-c3cc4ccccc4s3)ccc2[nH]c1=O` showed a half-maximal inhibitory concentration (IC50) of 290 nM.

`O=C(O)CCCCCCCOc1ccc(/C=c2/[nH]c(=O)/c(=C/c3ccc(NC(=O)c4cccs4)cc3)[nH]c2=O)cc1` showed an IC50 of 510 nM.

In turn, `Cc1ccc(N2CC(O)=C(C(=O)Nc3ccc(OCCCCCCCn4cnnn4)cc3)C2=O)cc1` came in with a concentration for half-maximal inhibition (IC50) of 830 nM. Compared with the last compound, the IC50 is about 1.6-fold higher.

With `O=C(O)CCCCCCCOc1ccc(NC(=O)c2c(O)nc3ccc(-c4csc5ccccc45)cc3c2O)cc1`, the IC50 turned out to be 940 nM.

The compound `O=C(Nc1ccc(OCCCCCCCn2cnnn2)cc1)C1=C(O)CN(c2ccc(Cl)cc2)C1=O` returned an IC50 of 300 nM.
